The source of these data is patent publication US9932339B2, “Helquats with heteroaromatic substituents, preparation thereof, and use thereof as G-quadruplex stabilizers” (USTAV ORGANICKE CHEMIE A BIOCHEMIE AV CR, V.V.I., priority 2014, dated 2018).

Like-named read-outs stand apart in the source and are kept apart here.

Format in all cases: cell-based, human
The subject of one experiment is HUVEC. Nature of the experiment: XTT cytotoxicity/proliferation assay, HUVEC. To be noted: Homo sapiens, HUVEC. Summed up:
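HUVEC (passages 3–8, collagen I-coated dishes, E-STIM medium) plated at 3000 cells/well, dosed next day with compounds in water. After 72 h at 37 °C, XTT added for 2 h; absorbance at 492 nm (reference 690 nm) against untreated and medium-only controls.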
On the technique in general: Tetrazolium dyes change colour on reduction, which living cells bring about.

In experiment [1] the test system is G-quadruplex in promoter region of the c-myc gene (NHE III1 segment). The experiment in a line: Dual luciferase analysis with plasmid pGL4.10-myc (luc2) in HGC-27 cells. To be noted: for inhibition at 50 µM / activity at 50 µM: Homo sapiens; for inhibition at 50 µM: HGC-27, text summary of tab. 5 (50 μmol·l^−1), read-out: inhibition of expression of firefly luciferase as compared to control; for activity at 50 µM: helquat 50 μmol · l^−1, HGC-27, firefly normalized to Renilla, 24 hours after transfection, read-out: luciferase expression relative to control (control = 100%); for Quantification of expression relative to control (%): control = 100%. In a few lines: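 HGC-27 cells were co-transfected 1:1 with pGL4.10-myc (luc2), whose firefly luciferase is driven by an 860 bp c-myc regulatory region containing the G-quadruplex-forming NHE III1 segment, and pRL-TK Renilla control, using X-tremeGENE HP DNA in OptiMEM. Compounds were added two hours post-transfection; luminescence read 24 hours after transfection was Renilla-normalized and expressed relative to control.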

A further experiment relates to c-myc protein. Nature of the experiment: Immunodetection of protein c-myc in HGC-27 cell lysates (Western blot). To be noted: 50 μmol · l^−1, 24 hour incubation, normalized to β-actin. Summed up:
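HGC-27 cells seeded at 25,000 cells/cm^2, treated next day with 50 μmol·l^−1 helquat for 24 h. RIPA lysates separated by 12% SDS-PAGE, blotted and probed for c-myc with β-actin loading control; chemiluminescence densitometry, c-myc normalized to β-actin and expressed relative to untreated control.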
(In general: Immunoblotting shows a protein as a band on a membrane.)

Setting [2] is: 72 hours of treatment, values above 100 μmol·l^−1 obtained by extrapolation, read-out: IC50 HUVEC.
The mark [3] stands for this setting: 72 hours, summary of table 9, read-out: concentrations non-toxic towards HUVEC cells.

As usually defined, the inhibition is the share of the control response that was lost under treatment. Consider `O=[N+]([O-])c1cccc2[nH]cc(/C=C/c3cc[n+]4c(c3)-c3c(ccc5c3-c3cccc[n+]3CC5)CC4)c12` (racemic) [LSA-C9-32, (rac)-(E)-2-(2-(4-nitro-1H-indol-3-yl)vinyl)-6,7,10,11-tetrahydrodipyrido[2,1-a:1′,2′-k][2,9]phenanthroline-5,12-diium trifluoromethanesulfonate], for which the IC50 with HUVEC (setting [2]) was ≥ 100 µM. Also, the IC50 in the experiment on HUVEC (setting [3]) was > 100 µM. Moreover, in experiment [1], the inhibition at 50 µM was > 20% and the activity at 50 µM came to 74%.

With `Cc1c(C)c2c(c3c1CC[n+]1ccc(/C=C/c4cccc5c4oc4ccccc45)cc1-3)-c1c3ccccc3cc[n+]1CC2` (racemic) [MJA-C13-8, (rac)-(E)-13-(2-(dibenzo[b,d]furan-4-yl)vinyl)-6,7-dimethyl-4,5,8,9-tetrahydroisoquinolino[1,2-a]pyrido[1,2-k][2,9]phenanthroline-3,10-diium trifluoromethanesulfonate], in the experiment with HUVEC (setting [2]), the IC50 was ≥ 100 µM. The “Quantification of expression relative to control (%)” value in experiment [1] (10 μmol · l^−1) worked out at 79.3 ± 6.7%; in experiment [1] (50 μmol · l^−1), 69.8 ± 6.0%; in experiment [1] (150 μmol · l^−1) it was 57.9 ± 2.5%. The inhibition at 50 µM in experiment [1] is > 40%. Besides, the activity at 50 µM in experiment [1] stood at 56%. Further, the “c-myc protein expression relative to control (control = 100%)” value in the experiment with c-myc protein is on record as 58%.

`C(=C\c1cccc2c1oc1ccccc12)/c1cc[n+]2c(c1)-c1c(ccc3c1-c1c4ccccc4cc[n+]1CC3)CC2.O=S(=O)([O-])C(F)(F)F.O=S(=O)([O-])C(F)(F)F` [MSB-C13-8, (E)-13-(2-(dibenzo[b,d]furan-4-yl)vinyl)-4,5,8,9-tetrahydroisoquinolino[1,2-a]pyrido[1,2-k][2,9]phenanthroline-3,10-diium trifluoromethanesulfonate]: the IC50 in the experiment with HUVEC (setting [2]) is ≥ 100 µM.

Turning to `Brc1ccc2[nH]cc(/C=C/c3cc4ccccc4[n+]4c3-c3c(ccc5c3-c3cccc[n+]3CCC5)CCC4)c2c1.O=S(=O)([O-])C(F)(F)F.O=S(=O)([O-])C(F)(F)F` [MSC-C9-30, 19-((E)-2-(5-bromo-1H-indol-3-yl)vinyl)-6,7,8,11,12,13-hexahydropyrido[1′″,2′″:1″,2″]azepino[4″,3″:5′,6′]benzo[1′,2′:3,4]azepino[1,2-a]quinoline-5,14-diium trifluoromethanesulfonate], the IC50 in the experiment on HUVEC (setting [2]) was ≥ 100 µM. Besides, the IC50 in the experiment on HUVEC (setting [3]) is > 100 µM. In experiment [1], the inhibition at 50 µM is > 20% and the activity at 50 µM came out at 68%. Besides, the “c-myc protein expression relative to control (control = 100%)” value in the experiment on c-myc protein is listed as 14%.

On to `C(=C\c1c(-c2ccccc2)[nH]c2ccccc12)/c1cc2ccccc2[n+]2c1-c1c(ccc3c1-c1cccc[n+]1CCC3)CCC2.O=S(=O)([O-])C(F)(F)F.O=S(=O)([O-])C(F)(F)F` [MSC-C15-8, 19-((E)-2-(2-phenyl-1H-indol-3-yl)vinyl)-6,7,8,11,12,13-hexahydropyrido[1′″,2′″:1″,2″]azepino[4″,3″:5′,6′]benzo[1′,2′:3,4]azepino[1,2-a]quinoline-5,14-diium trifluoromethanesulfonate], for which the IC50 in the experiment with HUVEC (setting [2]) was ≥ 51 µM. In experiment [1], the inhibition at 50 µM was > 20% and the activity at 50 µM turned out to be 76%. Also, in the experiment with c-myc protein, the “c-myc protein expression relative to control (control = 100%)” value is 58%.
